Tested on: human lung adenocarcinoma epithelial cell line A549
Assay: Growth inhibition in vitro of human tumor cell line A549 (MTT assay)
Format: cell-based
Details: for IC50: Homo sapiens, A549 cells, MTT assay, 24 hours incubation, read-out: IC 50, tumor cell growth inhibition in human tumor cell line A549
Experimental: Growth Inhibition In Vitro of Human Tumor Cell Line A549 by Examples:
Human lung adenocarcinoma epithelial cell line A549 was obtained from American Type Culture Collection (ATCC) and maintained in Dulbecco modified eagle medium supplemented with 10% fetal bovine serum. MTT assay was performed using the MTT cell proliferation assay kit (ATCC). Briefly, 3×10^3 A549 cells/well were plated in 96 well plates overnight and then incubated with different concentrations of tested compounds or vehicle controls for 24 hours. Ten μl of MTT reagent was added to each well for 120 min. The formazan crystal was dissolved with MTT detergent, and the OD value was measured at 570 nm using a SpectraMax M3 microplate reader (Molecular Devices). Data were normalized to vehicle controls and processed using GraphPad Prism 5.00.

C#Cc1cccc(Nc2ncnc3cc(OCCOC)c(OCCOC)cc23)c1 [Erlotinib, reference compound] gave an IC50 of 9.9 µM.

In the case of C#Cc1cccc(Nc2ncnc3cc(OCCOCCOCCOCCOc4cc5ncnc(Nc6cccc(C#C)c6)c5cc4OCCOC)c(OCCOC)cc23)c1 [dimer 1, 7,7′-((((oxybis(ethane-2,1-diyl))bis(oxy))bis(ethane-2,1-diyl))bis(oxy))bis(N-(3-ethynylphenyl)-6-(2-methoxyethoxy)quinazolin-4-amine)], the IC50 is reported as over 80 µM.

In the case of C#Cc1cccc(Nc2ncnc3cc(OCCOC)c(OCCOCCOCCOCCOc4cc5c(Nc6cccc(C#C)c6)ncnc5cc4OCCOC)cc23)c1 [dimer 2, 6,6′-((((oxybis(ethane-2,1-diyl))bis(oxy))bis(ethane-2,1-diyl))bis(oxy))bis(N-(3-ethynylphenyl)-7-(2-methoxyethoxy)quinazolin-4-amine)], the IC50 is reported as 5.1 µM and the “in vitro activity compared to Erlotinib in cell line A549” value (human lung adenocarcinoma epithelial cell line A549, comparison in words) is reported as “higher activity than Erlotinib”.

C#Cc1cccc(Nc2ncnc3cc(OCCOCCOCCOCCOc4cc5c(Nc6cccc(C#C)c6)ncnc5cc4OCCOC)c(OCCOC)cc23)c1 [dimer 3, N-(3-ethynylphenyl)-6-(2-(2-(2-(2-((4-((3-ethynylphenyl)amino)-6-(2-methoxyethoxy)quinazolin-7-yl)oxy)ethoxy)ethoxy)ethoxy)ethoxy)-7-(2-methoxyethoxy)quinazolin-4-amine] showed an IC50 of over 80 µM.
